Test [1] addresses T1, PTPN9 (Homo sapiens, UniProt P43378).
T1 construct: made in house; host or cells: Escherichia coli Rosetta (DE3)
T1 sequence (P43378 277-581): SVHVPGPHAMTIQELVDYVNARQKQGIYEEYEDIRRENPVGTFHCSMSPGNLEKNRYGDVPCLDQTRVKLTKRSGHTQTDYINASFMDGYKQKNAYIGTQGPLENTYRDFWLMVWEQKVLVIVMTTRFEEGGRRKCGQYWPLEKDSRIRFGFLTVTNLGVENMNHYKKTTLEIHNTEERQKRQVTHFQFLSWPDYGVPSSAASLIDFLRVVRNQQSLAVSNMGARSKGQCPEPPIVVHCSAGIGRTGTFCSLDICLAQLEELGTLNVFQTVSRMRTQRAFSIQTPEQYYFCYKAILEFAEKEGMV
Kind of test: PTPN9 enzyme inhibition with DiFMUP substrate. Conditions: DiFMUP 220 µM, PTPN9 0.15 nM; NA: no activity. The class given is biochemical. How it is done:
(§1) The purification and kinetic analyses of PTPN9 and DUSP9 (Ser277–581) were performed following methods described in the literature, with slight modifications. PAGE analysis data and enzyme kinetic constants are presented in Figure S1 and Table S1, respectively. Enzyme activity in the presence or absence of the compounds was measured using DiFMUP, a representative PTP fluorogenic substrate. First, the inhibitory effects of compounds 1–3 were evaluated using 50 µM PTPN9 and 20 µM DUSP9. There was an increase in the inhibitory activity of compound 1 for both enzymes as the number of CH2 units increased from 9 to 14 (Figure 2A,B).
(§2) Next, the IC50 values of the compounds, which induce a 50% inhibition of DiFMUP hydrolytic enzyme activity, were determined (Table 1). The IC50 values were determined from the dose–response enzyme inhibition curves of each compound. The dose–response curves for compounds 1e and 1f against PTPN9 and DUSP9, respectively, are presented in Figure 2C,D. Dose–response curves were also obtained for the other compounds (Figures S2 and S3).
(§3) The methods employed for PTP overexpression and purification have been described in a previous study. In brief, human PTPN9 and DUSP9 were cloned into a pET28a vector (Merk Millipore, Darmstadt, Germany) containing a hexahistidine (His6) tag or a maltose-binding protein (MBP) tag in its N-terminus (see Supplementary Materials). Recombinant genes were separately transformed into Escherichia coli Rosetta (DE3) (Merk Millipore, Darmstadt, Germany), and the overexpression of each gene was induced via the addition of 0.1 mM IPTG (Ducherfa Biochemie, Haarlem, RV, USA). After 16 h of incubation at 18 °C, cell pellets were obtained via centrifugation (3570× g at 4 °C for 15 min), resuspended in lysis buffer (50 mM Tris, pH: 7.5, 500 mM NaCl, 5% glycerol, 0.025% 2-mercaptoethanol, and 1 mM phenyl-methylsulfonyl fluoride (PMSF)), and lysed by ultrasonication. Subsequently, cell lysates were centrifuged at 29,820× g for 30 min at 4 °C; then, the supernatant was collected and incubated with a cobalt affinity resin (TALON® Metal Affinity Resin, Takara Korea, Seoul, Korea). After 1 h of incubation at 4 °C, the desired proteins were eluted by adding the lysis buffer supplemented with 100 mM imidazole. Samples were stored at –80 °C until use.
(§4) The enzymatic activities of purified PTPN9 and DUSP9 were measured using 6,8-difluoro-4-methylumbelliferyl phosphate (DiFMUP), the most widely used fluorogenic PTP substrate in the literature. To determine KM values, PTPN9 (0.15 nM) and DUSP9 (200 nM) were added to a reaction buffer (20 mM Bis-tris, pH: 7.0, 150 mM NaCl, 2.5 mM dithiothreitol (DTT), and 0.01% Triton X-100) containing DiFMUP (800, 400, 200, 100, 50, 25, 12.5, or 6.25 μM) in a 96-well black plate. The final reaction volume was 100 µL. The fluorescence intensity was continuously monitored for 10 min (Ex/Em = 355/460 nm) on a Victor™ X4 multilabel plate reader (Perkin Elmer, Norwalk, CT, USA). KM values were obtained using Lineweaver–Burk plots analysis.
(§5) To evaluate the enzyme inhibitory effects of GA and its analogs, 10 µl of the enzyme stock solution (1.5 nM PTPN9 and 2 µM DUSP9) in the reaction buffer was added into the mixture of DiFMUP (to a final concentration of 220 µM and 90 µM for PTPN9 and DUSP9, respectively) and each compound (to a final concentration of 50 µM and 20 µM for PTPN9 and DUSP9, respectively) was added to the reaction buffer. Enzyme activity was measured as described above. Half-inhibitory concentration (IC50) values were determined under similar conditions, except for the concentrations of the inhibitors (200, 100, 50, 25, 12.5, 6.25, or 3.125 µM for PTPN9 and 25, 12.5, 6.25, 3.125, 1.563, 0.782, or 0.391 µM for DUSP9). The dose-dependent curve was fitted to the four-parameter logistic regression equation, (y = a + (b – a)/(1 + (x/c)^d), to obtain IC50 values using the Kaleida Graph software Ver. 4.1.3. (Synergy Software Inc, PA, USA).

Test [2] has as its target T2, DUSP9 (Homo sapiens, UniProt Q99956).
T2 construct: made in house; host or cells: Escherichia coli Rosetta (DE3)
T2 sequence (Q99956 1-384): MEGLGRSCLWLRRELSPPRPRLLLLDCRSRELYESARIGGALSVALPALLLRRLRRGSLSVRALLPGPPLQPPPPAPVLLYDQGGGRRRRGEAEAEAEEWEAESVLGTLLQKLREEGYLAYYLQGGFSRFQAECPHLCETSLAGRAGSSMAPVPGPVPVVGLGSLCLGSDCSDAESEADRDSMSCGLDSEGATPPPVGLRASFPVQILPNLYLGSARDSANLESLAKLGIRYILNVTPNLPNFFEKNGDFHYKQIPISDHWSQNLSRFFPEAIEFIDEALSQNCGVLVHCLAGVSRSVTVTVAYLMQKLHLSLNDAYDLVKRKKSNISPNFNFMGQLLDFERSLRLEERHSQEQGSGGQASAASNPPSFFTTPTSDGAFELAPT
Kind of test: DUSP9 enzyme inhibition with DiFMUP substrate. The class given is biochemical. The note with it: DiFMUP 90 µM, DUSP9 200 nM; NA: no activity. How it is done: as §1, §2, §3, §4, §5

Test [3] addresses T1, PTPN9. Kind of test: Kinetics of DiFMUP hydrolysis by PTPN9. It is filed as biochemical. Conditions: [E] 0.15 nM. As to the method: (§6) The purification and kinetic analyses of PTPN9 and DUSP9 (Ser277–581) were performed following methods described in the literature, with slight modifications. […] Enzyme activity in the presence or absence of the compounds was measured using DiFMUP, a representative PTP fluorogenic substrate.
as §4

In test [4] the target is T2, DUSP9. Briefly: Kinetics of DiFMUP hydrolysis by DUSP9. It is filed as biochemical. Conditions: [E] 200.0 nM. How it is done: as §6, §4
A further test deals with 3T3-L1 adipocytes. Briefly: 2-NBDG glucose uptake assay in differentiated 3T3-L1 adipocytes. The class given is cell-based, mouse. The note with it: 100 nM. As to the method: PTPN9 inhibitors have been reported to increase glucose uptake. To clarify the antidiabetic effects of GA analogs, a 2-NBDG (a fluorescent glucose probe) uptake assay was performed using differentiated 3T3-L1 adipocytes and C2C12 myotubes. After 16 h of starvation, differentiated 3T3-L1 adipocytes were incubated with compounds 1e and 1f for another 1 h. The cells were subsequently incubated with 2-NBDG for 30 min and washed with PBS before quantifying the fluorescence of 2-NBDG taken up by the cells. The 2-NBDG uptake-increasing effects of GA and its analogs in 3T3-L1 cells were monitored via confocal microscopy. The blank group was set in the absence of 2-NBDG but was treated with DMSO to determine the basal fluorescence levels in 3T3-L1 adipocytes (Figure 4A, Basal); in the negative control group, 3T3-L1 adipocytes were treated with 2-NBDG and DMSO for the evaluation of basal glucose uptake levels (Figure 4A, DMSO). […] Furthermore, to quantify 2-NBDG uptake, fluorescence intensity (Ex/Em = 485/535 nm) was measured using a plate reader. […] After incubation, the cells were washed with pre-cold PBS, and the fluorescence intensity was measured using a fluorescence microplate reader (Victor^TM X4, PerkinElmer, Waltham, MA, USA) (Ex/Em = 485/535 nm). […]

From publication PMC8999917, “Structure–Activity Relationship of Synthetic Ginkgolic Acid Analogs for Treating Type 2 Diabetes by PTPN9 Inhibition” (International Journal of Molecular Sciences, 2022) come the findings set out here.

As for `CCCCCCCCCCCOc1cccc(O)c1C(=O)O` [Compound 1c], the half-inhibitory concentration (IC50) on PTPN9 [1] was determined as 77.1 ± 0.78 µM; at DUSP9 [2], 23.9 ± 0.65 µM.
Take `CCCCCCCCCCCCOc1cccc(O)c1C(=O)O` [Compound 1d]: the half-inhibitory concentration (IC50) at PTPN9 [1] was determined as 28.54 ± 0.1 µM; on DUSP9 [2] it was 8.61 ± 0.66 µM.
For `CCCCCCCCCCCCCOc1ccc(C(=O)O)c(O)c1` [Compound 2], the values for the IC50 at PTPN9 [1] and at DUSP9 [2] were 69.3 ± 6.22 µM and 5.27 ± 0.07 µM, respectively.
`CCCCCCCCCCCCCOc1ccc(O)c(C(=O)O)c1` [Compound 3]: the results for the half-maximal inhibitory concentration (IC50) at PTPN9 [1] and at DUSP9 [2] were 36.5 ± 1 µM and 4.68 ± 0.06 µM, respectively.
As to `Cc1cc(=O)oc2c(F)c(OP(=O)(O)O)c(F)cc12` [DiFMUP, 6,8-difluoro-4-methylumbelliferyl phosphate], at PTPN9 [3], the Km came to 110 µM and the Vmax was 1.73 μMmin-1. At DUSP9 [4], the Km turned out to be 45 µM, the Vmax came to 1.65 μMmin-1 and the kcat is 0.138 s⁻¹.
With “Insulin: positive control (100 nM) in the 2-NBDG uptake assay”, in the test on 3T3-L1 adipocytes, the “2-NBDG uptake (positive control)” value is given as “significantly stimulated 2-NBDG uptake”.

What is called IC50 is the concentration that inhibits the measured activity by half. What is called Km is the concentration of substrate that gives half-maximal velocity. Usually kcat stands for the number of substrate molecules converted per active site and unit of time at saturation.
